Reference: patent publication US12540297B2, “Microfluidic device for cerebrovascular simulation and high-efficiency blood-brain barrier simulation system comprising same” (CELLARTGEN INC., priority 2018, dated 2026)

Experiments:
[1] = tested on: Cryptococcus neoformans; assay: Multi-organ hNVU chip fungal neuroaffinity with inositol supplementation; assay type: cell-based; settings: 200 mg/ml inositol added only to liver unit, 1 day after inoculation
Experimental: NSC, PC and EC were seeded in the same manner as described above for fabrication of the hNVU chip system, and 8×10^6 Huh-7 cells/ml encapsulated in a BMEM hydrogel were seeded in a central channel of a liver unit of the multi-organ hNVU chip. CFW-labeled fungal cells were injected through an upper reservoir of the liver unit so that the fungi were not affected by factors secreted from a brain unit. Simultaneously with fungal inoculation, inositol (200 mg/ml, Duchefa, RV Haarlem, Netherlands) was added only to a lower channel of the liver unit.

[2] = tested on: EC layer of BBB in hNVU chip (NSC-EC-PC/flow group); assay: BBB permeability response to TNF-α exposure in hNVU chip; assay type: cell-based, human; settings: 20 ng/ml TNF-α
Experimental: In order to evaluate BBB permeability, the hNVU chip was placed horizontally on the substrate, and both EC and medium channels were filled with PBS to match the surface levels and homogenize the pressure applied to a 3D matrix. […] Vascular permeability was evaluated by the flow rate of the solute across the EC barrier according to the reference method. […] Vascular barrier permeability (Pv) was induced by using the mean intensity of blood vessels (Iv) and tissues (NSC gel, IT) at two different time points t1 and t2, according to Equation 6 calculated by Image J software. Here, Δt, V and Asurface are approximated by the mean morphology of the EC layer in the hNVU chip in the 3D confocal image and represent the time between two images in a selected region of interest, the NSC gel volume, and the surface area of the EC layer, respectively.

Row | Compound | fungal invasion into the liver unit through the EC barrier [1] | level of neuroaffinity of C. neoformans [1] | increase of permeability of the EC layer to 70 kDa FITC-dextran [2]
1 | O[C@H]1[C@H](O)[C@@H](O)[C@H](O)[C@@H](O)[C@H]1O [inositol] | did not increase fungal invasion | reduced the level of neuroaffinity | –
2 | TNF-α | – | – | about 2.8 times
